In publication PMC9207888, “Hydride Transfer Mechanism of Enzymatic Sugar Nucleotide C2 Epimerization Probed with a Loose-Fit CDP-Glucose Substrate” (ACS Catalysis, 2022):

Assays:
Type in all cases: binding
[1] = target: T1, TaCPa2E (Thermodesulfatator atlanticus CDP-paratose 2-epimerase; C2 epimerase) (Thermodesulfatator atlanticus, UniProt Z9RN36Q305); experiment: HPLC quantification of coenzyme released from denatured purified enzyme; conditions: resting enzyme without substrate, 60 °C, pH 7.5
T1 construct: C-terminal His-tag, pET21a, expressed in E. coli BL21(DE3); 39362 g/mol functional monomer; catalytic Tyr164; SDR superfamily
T1 sequence (Z9RN36Q305 1-340): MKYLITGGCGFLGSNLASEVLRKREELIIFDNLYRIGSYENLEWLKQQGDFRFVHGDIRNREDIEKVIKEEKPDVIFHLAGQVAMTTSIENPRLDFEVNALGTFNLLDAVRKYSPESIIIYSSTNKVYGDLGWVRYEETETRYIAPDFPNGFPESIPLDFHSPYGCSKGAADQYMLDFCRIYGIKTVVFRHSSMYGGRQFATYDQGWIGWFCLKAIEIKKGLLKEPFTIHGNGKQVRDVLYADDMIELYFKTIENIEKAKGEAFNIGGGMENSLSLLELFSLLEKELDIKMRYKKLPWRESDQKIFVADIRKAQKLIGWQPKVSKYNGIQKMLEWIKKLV
Text: HPLC quantification of coenzyme released from denatured purified enzyme on TaCPa2E (Thermodesulfatator atlanticus CDP-paratose 2-epimerase; C2 epimerase) | the NADH content of the resting enzyme in the absence of the substrate

[2] = target: T1, TaCPa2E (Thermodesulfatator atlanticus CDP-paratose 2-epimerase; C2 epimerase); experiment: HPLC of coenzyme released from denatured purified enzyme; conditions: tightly bound, co-purified; extraction not quantitative
[3] = target: T2, TaCPa2E (Thermodesulfatator atlanticus CDP-paratose 2-epimerase; C2 epimerase) (Thermodesulfatator atlanticus, UniProt Z9RN36Q305, Y164F); experiment: co-purified coenzyme in isolated variant; conditions: tightly bound
T2 construct: C-terminal His-tag, pET21a, expressed in E. coli BL21(DE3); 39362 g/mol functional monomer; catalytic Tyr164; SDR superfamily

SMILES	portion of enzyme-NADH in resting enzyme [1] [%]	HPLC of coenzyme released from denatured purified enzyme [2]	co-purified coenzyme in isolated variant [3]
NC(=O)C1=CN([C@@H]2O[C@H](COP(=O)(O)OP(=O)(O)OC[C@H]3O[C@@H](n4cnc5c(N)ncnc54)[C@H](O)[C@@H]3O)[C@@H](O)[C@H]2O)C=CC1 [NADH]	4.15 ± 1.0	–	–
NC(=O)c1ccc[n+]([C@@H]2O[C@H](COP(=O)(O)OP(=O)(O)OC[C@H]3O[C@@H](n4cnc5c(N)ncnc54)[C@H](O)[C@@H]3O)[C@@H](O)[C@H]2O)c1 [NAD^+]	–	enzyme-bound NAD^+ could not be extracted from TaCPa2E reliably	The purified variant contained tightly bound NAD^+
